Laboratory results: patent US20100261639A1, “TRIAZOLE-BASED AMINOGLYCOSIDE-PEPTIDE CONJUGATES AND METHODS OF USE” (UNIVERSITY OF MANITOBA, priority 2007, published 2010)
Converted amounts (≈) assume the structure as drawn.

Test system: S. aureus ATCC 29213
Test: MIC, macrobroth dilution, S. aureus ATCC 29213
Assay type: cell-based, Staphylococcus aureus
Conditions: visible growth after 24 h at 37° C.
Method: The microbiological activities of the neomycin-peptide conjugates and kanamycin-peptide conjugates against both American Type Culture Collection (ATCC) reference and clinical strains of Staphylococcus aureus, MRSA, Staphylococcus epidermidis, MRSE, Enterococcus faecalis, Enterococcus faecium, Streptococcus pneumoniae, E. coli, Pseudomonas aeruginosa, Stenotrophomonas maltophilia, Acinetobacter baumannii, and Klebsiella pneumoniae were assessed. Special focus was given to assess activity against multi-drug resistant strains of these pathogens. Antibiotic susceptibility testing was performed using the macrobroth dilution method as per Clinical Laboratory Standards Institute-CLSI (formerly National Committee for Clinical and Laboratory Standards-NCCLS) (Clinical and Laboratory Standards Institute, 2006). MIC values defined as the lowest concentration of antimicrobial agent which inhibited the development of visible growth after 24 h at 37° C.

Question: How did the “minimal inhibitory concentration (MIC)” value turn out when `NC[C@@H]1O[C@H](O[C@H]2[C@@H](O)[C@H](O[C@@H]3[C@@H](O)[C@H](N)C[C@H](N)[C@H]3O[C@H]3O[C@H](CN)[C@@H](O)[C@H](O)[C@H]3N)O[C@@H]2CO)[C@H](N)[C@@H](O)[C@@H]1O` [Neomycin B, neomycin B] was run?
Answer: The value was 2 mg/L (≈ 3.25 µM).
